# In publication PMC2741015 (Molecular and biochemical parasitology, 2009):
# T1: P. falciparum SHMT (PfSHMT) (Plasmodium falciparum, UniProt Q8I566)
# T1 sequence (Q8I566 1-442): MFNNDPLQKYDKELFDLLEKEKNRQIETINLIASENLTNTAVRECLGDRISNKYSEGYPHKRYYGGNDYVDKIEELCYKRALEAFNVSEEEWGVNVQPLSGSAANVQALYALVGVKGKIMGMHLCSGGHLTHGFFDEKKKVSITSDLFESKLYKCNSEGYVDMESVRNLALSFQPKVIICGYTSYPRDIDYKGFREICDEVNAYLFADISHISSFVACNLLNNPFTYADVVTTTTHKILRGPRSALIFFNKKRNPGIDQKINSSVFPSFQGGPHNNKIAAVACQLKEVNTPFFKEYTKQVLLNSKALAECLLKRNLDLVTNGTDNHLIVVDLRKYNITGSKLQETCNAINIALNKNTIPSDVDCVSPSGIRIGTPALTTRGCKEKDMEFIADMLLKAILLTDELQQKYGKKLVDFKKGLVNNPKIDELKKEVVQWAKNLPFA
# Experiments:
# [1] = target: PfSHMT protein interaction with SHMT or DHFR-TS mRNA (Plasmodium falciparum, UniProt Q8I566); test: RNA-protein interaction gel shift, competition with substrates; assay type: binding; details: 500 nM SHMT protein, 0.5 nM labeled RNA; 125 μM PLP, 3 mM serine, 3 mM THF
# [2] = target: T1, P. falciparum SHMT (PfSHMT); test: PfSHMT activity inhibition by antifolates; assay type: biochemical
# [3] = target: T1, P. falciparum SHMT (PfSHMT); test: Michaelis-Menten constants of PfSHMT substrates; assay type: biochemical
# [4] = target: P. falciparum SHMT apo enzyme (Plasmodium falciparum, UniProt Q8I566); test: Activity of apo PfSHMT with and without PLP; assay type: biochemical; details: apo enzyme with vs without PLP (Fig 4A)
# SEC = target: the molecule itself; test: SEC
molecule,measurement,setting,value
N[C@@H](CO)C(=O)O [serine],Effect on PfSHMT protein interaction with SHMT or DHFR-TS mRNA,[1],not abrogated
Cc1nc2ccc(CN(C)c3ccc(C(=O)N[C@@H](CCC(=O)O)C(=O)O)s3)cc2c(=O)[nH]1 [D1694],IC50,[2],> 500 µM
CN(Cc1cnc2nc(N)nc(N)c2n1)c1ccc(C(=O)N[C@@H](CCC(=O)O)C(=O)O)cc1 [methotrexate],IC50,[2],> 500 µM
CCc1nc(N)nc(N)c1-c1ccc(Cl)cc1 [pyrimethamine],IC50,[2],> 500 µM
Nc1nc2[nH]cc(CCc3ccc(C(=O)N[C@@H](CCC(=O)O)C(=O)O)cc3)c2c(=O)[nH]1 [pemetrexed],IC50,[2],> 500 µM
tetrahydrofolate [THF],Vmax,[3]; from velocity vs. substrate fit,188.5 pmol/min
same,Km,"[3]; read-out: Km, P falciparum, Table 1, P. falciparum SHMT",3.4 mM
"Cc1ncc(COP(=O)(O)O)c(C=O)c1O [PLP, pyridoxal 5’-phosphate]",Enzyme activity of apo enzyme with PLP added to the reaction,[4],increased by more than ten fold
same,Effect on PfSHMT protein interaction with SHMT or DHFR-TS mRNA,[1],not abrogated
"Plasmodium falciparum serine hydroxymethyltransferase with an N-terminal histidine tag (enzyme, Plasmodium falciparum (strain 3D7), UniProt Q8I566 1-442, looked up) MFNNDPLQKYDKELFDLLEKEKNRQIETINLIASENLTNTAVRECLGDRISNKYSEGYPHKRYYGGNDYVDKIEELCYKRALEAFNVSEEEWGVNVQPLSGSAANVQALYALVGVKGKIMGMHLCSGGHLTHGFFDEKKKVSITSDLFESKLYKCNSEGYVDMESVRNLALSFQPKVIICGYTSYPRDIDYKGFREICDEVNAYLFADISHISSFVACNLLNNPFTYADVVTTTTHKILRGPRSALIFFNKKRNPGIDQKINSSVFPSFQGGPHNNKIAAVACQLKEVNTPFFKEYTKQVLLNSKALAECLLKRNLDLVTNGTDNHLIVVDLRKYNITGSKLQETCNAINIALNKNTIPSDVDCVSPSGIRIGTPALTTRGCKEKDMEFIADMLLKAILLTDELQQKYGKKLVDFKKGLVNNPKIDELKKEVVQWAKNLPFA",stoichiometry N,SEC,2
